This note sets out measurements from patent publication US8563588B2, “Imidazolone derivatives, method for the preparation thereof and biological applications” (Universite de Rennes 1, priority 2007, dated 2013).

Like-named read-outs stand apart in the source and are kept apart here.

This assay has as its target Rat recombinant DYRK1A (Rattus norvegicus, UniProt Q63470). Kind of assay: Assaying of the kinase activity of DYRK1A (33P-ATP, myelin basic protein, P81 filter).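 Further: GST fusion rat DYRK1A made in E. coli, scintillation counting of label bound to substrate, activity as percent of the inhibitor-free maximum after blank subtraction.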 Type of assay: biochemical.
[1] abbreviates: 15 μM ATP, 30° C., 30 min, read-out: IC50 DYRK1A.

Description: Rat recombinant DYRK1A was expressed in E. coli as a GST fusion protein. It was purified by affinity chromatography on beads of immobilized glutathione (elution with free glutathione). […] After incubation at 30° C. for 30 min, 25-μL aliquots of supernatant were spotted onto Whatman P81 phosphocellulose filters and the filters were washed five times in a solution of phosphoric acid (10 ml/L water). The radioactivity incorporated into the substrate, retained on the moist filters, was then counted in the presence of ACS scintillation fluid (Amersham). The control values were subtracted and the activities were expressed as % of the maximum value, i.e. the value obtained in the absence of inhibitors. The IC50 values were calculated from dose-response curves and are given in μM.

On to `CCCCN1C(=O)/C(=C/c2ccc3c(c2)OCO3)NC1=S` [JR361], for which, under setting [1], the IC50 (as a rule, the concentration at which inhibition is half-maximal) was more than 10000 nM.
For the compound `O=C1/C(=C/c2ccc3c(c2)OCO3)NC(=S)N1c1ccccc1` [JR370], under setting [1], the IC50 is more than 10000 nM.
Still for that read-out and setting: the result for `CCOC(=O)CSC1=N/C(=C\c2ccc3c(c2)OCO3)C(=O)N1C` [JR404] reads 5800 nM; that for `CCOC(=O)CSC1=N/C(=C\c2ccc3c(c2)OCO3)C(=O)N1c1ccccc1` [JR411], more than 10000 nM; that for `CCCCN1C(=O)/C(=C/c2ccc3c(c2)OCO3)N=C1NCCC` [JR442], more than 10000 nM.
On the same count and under the same terms, the result for `CCCNC1=N/C(=C\c2ccc3c(c2)OCO3)C(=O)N1c1ccccc1` [JR445] reads more than 10000 nM; that for `CCCCN1C(=O)/C(=C/c2ccc3c(c2)OCO3)N=C1SC` [JR448], more than 10000 nM; that for `CN1C(=O)/C(=C/c2ccc3c(c2)OCO3)N=C1Nc1ccc(O)cc1` [MADE8], 380 nM.
Take `CN1C(=O)/C(=C/c2ccc3c(c2)OCO3)N=C1Nc1ccccc1O` [MADE9]: under setting [1], the IC50 is 690 nM.
`COC(CNC1=N/C(=C\c2ccc3c(c2)OCO3)C(=O)N1C)OC` [MADE10]: the IC50 under setting [1] is 1400 nM.
Same read-out and setting: the result for `CN1C(=O)/C(=C/c2ccc3c(c2)OCO3)N=C1NCc1ccc2c(c1)OCO2` [MADE12] reads 4600 nM.
Consider `CN1C(=O)/C(=C/c2ccc3c(c2)OCO3)N=C1NCCCCCO` [MADE23], for which the IC50 (IC50 DYRK1A) was 3000 nM.
As for `COC(=O)NCCNC1=N/C(=C\c2ccc3c(c2)OCO3)C(=O)N1C` [MADE24], the IC50 under setting [1] is more than 10000 nM.
`CN1C(=O)/C(=C/c2ccc3c(c2)OCO3)N=C1Nc1ccc2c(c1)OCCO2` [MADE29]: the IC50 under setting [1] amounted to 190 nM.
Regarding `CN1C(=O)/C(=C/c2ccc3c(c2)OCO3)N=C1Nc1ccc2c(c1)OCO2` [MADE30], the IC50 under setting [1] amounted to 370 nM.
As for `CN1C(=O)/C(=C/c2ccc3c(c2)OCO3)N=C1Nc1ccccc1` [MADE32], the IC50 under setting [1] was 400 nM.
With `CN1C(=O)/C(=C/c2ccc3c(c2)OCO3)N=C1Nc1ccc(O)c(C(=O)O)c1` [MADE33], the IC50 under setting [1] was found to be 940 nM.
On the same count and under the same terms, the result for `CN1C(=O)/C(=C/c2ccc3c(c2)OCO3)N=C1Nc1ccc(CC(=O)O)cc1` [MADE34] reads 860 nM.
The same measure, in the same setting: the result for `CN1C(=O)/C(=C/c2ccc3c(c2)OCO3)N=C1Nc1cccc(CO)c1` [MADE37] reads 230 nM.
Take `COc1ccc(NC2=N/C(=C\c3ccc4c(c3)OCO4)C(=O)N2C)cc1` [MADE39]: the IC50 (IC50 DYRK1A) came out at 270 nM.
With `CN1C(=O)/C(=C/c2ccc3c(c2)OCO3)N=C1NCCO` [MADE40], the IC50 under setting [1] turned out to be 730 nM.
On to `CN1C(=O)/C(=C/c2ccc3c(c2)OCO3)N=C1Nc1ccccc1` [MADE42], for which, under setting [1], the IC50 worked out at 430 nM.
`O=C1NC(Nc2ccccc2)=N/C1=C\c1ccc2c(c1)OCO2` [MADE44]: the IC50 under setting [1] was 71 nM.
The same measure, in the same setting: the result for `CN1C(=O)/C(=C/c2ccc3c(c2)OCO3)N=C1NCC(O)CO` (stereo not drawn) [MADE47] reads 790 nM; that for `O=C1NC(Nc2ccc(O)cc2)=N/C1=C\c1ccc2c(c1)OCO2` [MADE48], 84 nM.
Still for that read-out and setting: the result for `CN1C(=O)/C(=C/c2ccc3c(c2)OCO3)N=C1c1ccccc1` [NL39, (5Z)-5-(1,3-Benzodioxol-5-ylmethylene)-3-methyl-2-phenyl-3,5-dihydro-4H-imidazol-4-one] reads 3200 nM; that for `CN1C(=O)/C(=C/c2ccc3c(c2)OCO3)N=C1c1ccc2c(c1)OCO2` [NL88A], 220 nM.
The same measure, in the same setting: the value for `CN1C(=O)/C(=C/c2ccc3c(c2)OCO3)N=C1c1ccc(O)cc1` [NL96] was 430 nM.
In the case of `CN1C(=O)/C(=C/c2ccc3c(c2)OCO3)N=C1NCCCO` [SA142], under setting [1], the IC50 is 1300 nM.
On the same count and under the same terms, the value for `CCCCN1C(=O)/C(=C/c2ccc3c(c2)OCO3)N=C1NCCCO` [SA164] was more than 10000 nM.
Same read-out and setting: the value for `COCCSC1=N/C(=C\c2ccc3c(c2)OCO3)C(=O)N1C` [SA197] was 2500 nM; that for `CCCCN1C(=O)/C(=C/c2ccc3c(c2)OCO3)N=C1SCC` [SB05] was more than 10000 nM.
Still for that read-out and setting: the result for `CCCCN1C(=O)/C(=C/c2ccc3c(c2)OCO3)N=C1SCc1ccccc1` [SB10] reads more than 10000 nM; that for `C=CCSC1=N/C(=C\c2ccc3c(c2)OCO3)C(=O)N1C` [SB14], 3400 nM.
On to `C#CCSC1=N/C(=C\c2ccc3c(c2)OCO3)C(=O)N1C` [SB16], for which, under setting [1], the 50% inhibitory concentration (IC50) worked out at 900 nM.
Same read-out and setting: the value for `C#CCSC1=N/C(=C\c2ccc3c(c2)OCO3)C(=O)N1CCCC` [SB22] was more than 10000 nM.
On the same count and under the same terms, the result for `C=CCSC1=N/C(=C\c2ccc3c(c2)OCO3)C(=O)N1CCCC` [SB25] reads more than 10000 nM; that for `CCSC1=N/C(=C\c2ccc3c(c2)OCO3)C(=O)N1C` [SB26, (5Z)-5-(1,3-benzodioxol-5-ylmethylene)-3-methyl-2-(ethylthio)-3,5-dihydro-4H-imidazol-4-one], 1400 nM; that for `CN1C(=O)/C(=C/c2ccc3c(c2)OCO3)N=C1SCc1ccccc1` [SB28], 5700 nM.
As for `CCSC1=N/C(=C\c2ccc(OC)c(OC)c2)C(=O)N1C` [SB55], under setting [1], the IC50 was more than 10000 nM.
The same measure, in the same setting: the result for `CCSC1=N/C(=C\c2cc(OC)cc(OC)c2)C(=O)N1C` [SB56] reads more than 10000 nM.
In the case of `CCCCN1C(=O)/C(=C/c2ccc(OC)c(OC)c2)N=C1SCC` [SB58], the IC50 under setting [1] was more than 10000 nM.
Still for that read-out and setting: the result for `CCCCN1C(=O)/C(=C/c2ccc3c(c2)OCO3)N=C1SCc1ccc([N+](=O)[O-])cc1` [SB60] reads more than 10000 nM; that for `CCCCN1C(=O)/C(=C/c2cc3c(cc2Br)OCO3)N=C1SCC` [SB80], more than 10000 nM; that for `CC(C)CCNC1=N/C(=C\c2ccc3c(c2)OCO3)C(=O)N1C` [ST025], 1700 nM.
The same measure, in the same setting: the result for `CN1C(=O)/C(=C/c2ccc(O)cc2)NC1=S` [ST076] reads more than 10000 nM.
As to `CSC1=N/C(=C\c2ccc(O)cc2)C(=O)N1C` [ST078], the IC50 under setting [1] turned out to be 6700 nM.
The same measure, in the same setting: the value for `CN1C(=O)/C(=C/c2ccc3c(c2)OC(F)(F)O3)NC1=S` [ST089] was more than 10000 nM.
Still for that read-out and setting: the value for `CCSC1=N/C(=C\c2ccc3c(c2)OC(F)(F)O3)C(=O)N1C` [ST091] was more than 10000 nM.
Same read-out and setting: the result for `CCCNC1=N/C(=C\c2ccc3c(c2)OC(F)(F)O3)C(=O)N1C` [ST092] reads more than 10000 nM; that for `CCCSC1=N/C(=C\c2ccc3c(c2)OCO3)C(=O)N1C` [ST094], 1800 nM.
Regarding `CC(C)SC1=N/C(=C\c2ccc3c(c2)OCO3)C(=O)N1C` [ST097], the IC50 under setting [1] is 1300 nM.
Same read-out and setting: the value for `CSC1=N/C(=C\c2ccc3c(c2)OCO3)C(=O)N1C` [ST099] was 6800 nM; that for `CCCCSC1=N/C(=C\c2ccc3c(c2)OCO3)C(=O)N1C` [ST101] was 2300 nM.
`CN1C(=O)/C(=C/c2ccc3c(c2)OCO3)N=C1SCC1CC1` [ST102]: the IC50 under setting [1] amounted to 1500 nM.
On the same count and under the same terms, the value for `CSC1=N/C(=C\c2ccc3c(c2)OCO3)C(=O)N1` [ST105] was 680 nM; that for `CCSC1=N/C(=C\c2ccc3c(c2)OCO3)C(=O)N1` [ST120] was 440 nM; that for `CCCSC1=N/C(=C\c2ccc3c(c2)OCO3)C(=O)N1` [ST122] was 440 nM.
As to `CCCCSC1=N/C(=C\c2ccc3c(c2)OCO3)C(=O)N1` [ST124], under setting [1], the IC50 came to 590 nM.
Still for that read-out and setting: the result for `O=C1NC(SCC2CC2)=N/C1=C\c1ccc2c(c1)OCO2` [ST130] reads 500 nM; that for `CC(C)SC1=N/C(=C\c2ccc3c(c2)OCO3)C(=O)N1` [ST135], 460 nM; that for `O=C1NC(SCC2CCC2)=N/C1=C\c1ccc2c(c1)OCO2` [ST142], 780 nM.
The same measure, in the same setting: the result for `COCCSC1=N/C(=C\c2ccc3c(c2)OCO3)C(=O)N1` [ST164] reads 650 nM.
